18 compounds from paper PMC12748989 (Nature Communications, 2025) can be followed below.

Test [1] deals with MDA-MB-231 cells.
Test [2] deals with PBMC. To be noted: 12.5 µM.

Take `CC[C@H](C)[C@H](N)C(=O)N[C@@H](CC(N)=O)C(=O)N[C@@H](CC(C)C)C(=O)N[C@@H](CCCCN)C(=O)N[C@@H](C)C(=O)N[C@@H](CC(C)C)C(=O)N[C@@H](C)C(=O)N[C@@H](C)C(=O)N[C@@H](CC(C)C)C(=O)N[C@@H](C)C(=O)N[C@@H](CCCCN)C(=O)N[C@@H](CCC(N)=O)C(=O)N[C@H](C(=O)N[C@@H](CC(C)C)C(N)=O)[C@@H](C)CC` [Q12]: the “Average (percentage cell inhibition), Dmastoparan MDA-MB231 12.5uM” value in test [1] is 35.4495%. In addition, in test [2], the “Average (percentage cell inhibition), Mastoparan PBMC” value was -3.934%.
In the case of `CC[C@H](C)[C@H](N)C(=O)N[C@@H](CC(N)=O)C(=O)N[C@@H](CC(C)C)C(=O)N[C@@H](CCCCN)C(=O)N[C@@H](C)C(=O)N[C@@H](CC(C)C)C(=O)N[C@@H](C)C(=O)N[C@@H](C)C(=O)N[C@@H](CC(C)C)C(=O)N[C@@H](C)C(=O)N[C@@H](CCCCN)C(=O)N[C@@H](CCCCN)C(=O)N[C@@H](CCC(N)=O)C(=O)N[C@@H](CC(C)C)C(N)=O` [Q13], the “Average (percentage cell inhibition), Dmastoparan MDA-MB231 12.5uM” value in test [1] amounted to 9.2166%. For the same compound, the “Average (percentage cell inhibition), Mastoparan PBMC” value in test [2] is listed as -1.132%.
For `CC[C@H](C)[C@H](N)C(=O)N[C@@H](CC(N)=O)C(=O)N[C@@H](CC(C)C)C(=O)N[C@@H](CCCCN)C(=O)N[C@@H](C)C(=O)N[C@@H](CC(C)C)C(=O)N[C@@H](C)C(=O)N[C@@H](C)C(=O)N[C@@H](CC(C)C)C(=O)N[C@@H](C)C(=O)N[C@@H](CCCCN)C(=O)N[C@@H](CCCCN)C(=O)N[C@H](C(=O)N[C@@H](CCC(N)=O)C(N)=O)[C@@H](C)CC` [Q14], the “Average (percentage cell inhibition), Dmastoparan MDA-MB231 12.5uM” value in test [1] is 0.3995%. The “Average (percentage cell inhibition), Mastoparan PBMC” value in test [2] was 1.109%.
For the compound `CC[C@H](C)[C@H](NC(=O)[C@H](CCCCN)NC(=O)[C@H](CCCCN)NC(=O)[C@H](C)NC(=O)[C@H](CC(C)C)NC(=O)[C@H](C)NC(=O)[C@H](C)NC(=O)[C@H](CC(C)C)NC(=O)[C@H](C)NC(=O)[C@H](CCCCN)NC(=O)[C@H](CC(C)C)NC(=O)[C@H](CC(N)=O)NC(=O)[C@@H](N)CCCNC(=N)N)C(=O)N[C@@H](CC(C)C)C(N)=O` [R1], in test [1], the “Average (percentage cell inhibition), Dmastoparan MDA-MB231 12.5uM” value was 31.3783%. Also, the “Average (percentage cell inhibition), Mastoparan PBMC” value in test [2] was -2.103%.
`CC[C@H](C)[C@H](N)C(=O)N[C@@H](CCCNC(=N)N)C(=O)N[C@@H](CC(C)C)C(=O)N[C@@H](CCCCN)C(=O)N[C@@H](C)C(=O)N[C@@H](CC(C)C)C(=O)N[C@@H](C)C(=O)N[C@@H](C)C(=O)N[C@@H](CC(C)C)C(=O)N[C@@H](C)C(=O)N[C@@H](CCCCN)C(=O)N[C@@H](CCCCN)C(=O)N[C@H](C(=O)N[C@@H](CC(C)C)C(N)=O)[C@@H](C)CC` [R2]: the “Average (percentage cell inhibition), Dmastoparan MDA-MB231 12.5uM” value in test [1] turned out to be 40.227%. For the same compound, the “Average (percentage cell inhibition), Mastoparan PBMC” value in test [2] is given as 6.823%.
On the same counts, the results for `CC[C@H](C)[C@H](N)C(=O)N[C@@H](CC(N)=O)C(=O)N[C@@H](CCCNC(=N)N)C(=O)N[C@@H](CCCCN)C(=O)N[C@@H](C)C(=O)N[C@@H](CC(C)C)C(=O)N[C@@H](C)C(=O)N[C@@H](C)C(=O)N[C@@H](CC(C)C)C(=O)N[C@@H](C)C(=O)N[C@@H](CCCCN)C(=O)N[C@@H](CCCCN)C(=O)N[C@H](C(=O)N[C@@H](CC(C)C)C(N)=O)[C@@H](C)CC` [R3] are 24.609% and -2.846%.
On to `CC[C@H](C)[C@H](N)C(=O)N[C@@H](CC(N)=O)C(=O)N[C@@H](CC(C)C)C(=O)N[C@@H](CCCNC(=N)N)C(=O)N[C@@H](C)C(=O)N[C@@H](CC(C)C)C(=O)N[C@@H](C)C(=O)N[C@@H](C)C(=O)N[C@@H](CC(C)C)C(=O)N[C@@H](C)C(=O)N[C@@H](CCCCN)C(=O)N[C@@H](CCCCN)C(=O)N[C@H](C(=O)N[C@@H](CC(C)C)C(N)=O)[C@@H](C)CC` [R4], for which the “Average (percentage cell inhibition), Dmastoparan MDA-MB231 12.5uM” value in test [1] worked out at 36.9563%. For the same compound, in test [2], the “Average (percentage cell inhibition), Mastoparan PBMC” value came out at 0.667%.
`CC[C@H](C)[C@H](N)C(=O)N[C@@H](CC(N)=O)C(=O)N[C@@H](CC(C)C)C(=O)N[C@@H](CCCCN)C(=O)N[C@@H](CCCNC(=N)N)C(=O)N[C@@H](CC(C)C)C(=O)N[C@@H](C)C(=O)N[C@@H](C)C(=O)N[C@@H](CC(C)C)C(=O)N[C@@H](C)C(=O)N[C@@H](CCCCN)C(=O)N[C@@H](CCCCN)C(=O)N[C@H](C(=O)N[C@@H](CC(C)C)C(N)=O)[C@@H](C)CC` [R5]: the “Average (percentage cell inhibition), Dmastoparan MDA-MB231 12.5uM” value in test [1] is listed as 27.1833%. Moreover, in test [2], the “Average (percentage cell inhibition), Mastoparan PBMC” value is recorded as -0.4192%.
For `CC[C@H](C)[C@H](N)C(=O)N[C@@H](CC(N)=O)C(=O)N[C@@H](CC(C)C)C(=O)N[C@@H](CCCCN)C(=O)N[C@@H](C)C(=O)N[C@@H](CCCNC(=N)N)C(=O)N[C@@H](C)C(=O)N[C@@H](C)C(=O)N[C@@H](CC(C)C)C(=O)N[C@@H](C)C(=O)N[C@@H](CCCCN)C(=O)N[C@@H](CCCCN)C(=O)N[C@H](C(=O)N[C@@H](CC(C)C)C(N)=O)[C@@H](C)CC` [R6], the “Average (percentage cell inhibition), Dmastoparan MDA-MB231 12.5uM” value in test [1] is 11.7131%. Besides, the “Average (percentage cell inhibition), Mastoparan PBMC” value in test [2] is given as -10.6069%.
With `CC[C@H](C)[C@H](N)C(=O)N[C@@H](CC(N)=O)C(=O)N[C@@H](CC(C)C)C(=O)N[C@@H](CCCCN)C(=O)N[C@@H](C)C(=O)N[C@@H](CC(C)C)C(=O)N[C@@H](CCCNC(=N)N)C(=O)N[C@@H](C)C(=O)N[C@@H](CC(C)C)C(=O)N[C@@H](C)C(=O)N[C@@H](CCCCN)C(=O)N[C@@H](CCCCN)C(=O)N[C@H](C(=O)N[C@@H](CC(C)C)C(N)=O)[C@@H](C)CC` [R7], the “Average (percentage cell inhibition), Dmastoparan MDA-MB231 12.5uM” value in test [1] is 35.9182%. Besides, the “Average (percentage cell inhibition), Mastoparan PBMC” value in test [2] came out at 3.182%.
On to `CC[C@H](C)[C@H](N)C(=O)N[C@@H](CC(N)=O)C(=O)N[C@@H](CC(C)C)C(=O)N[C@@H](CCCCN)C(=O)N[C@@H](C)C(=O)N[C@@H](CC(C)C)C(=O)N[C@@H](C)C(=O)N[C@@H](CCCNC(=N)N)C(=O)N[C@@H](CC(C)C)C(=O)N[C@@H](C)C(=O)N[C@@H](CCCCN)C(=O)N[C@@H](CCCCN)C(=O)N[C@H](C(=O)N[C@@H](CC(C)C)C(N)=O)[C@@H](C)CC` [R8], for which the “Average (percentage cell inhibition), Dmastoparan MDA-MB231 12.5uM” value in test [1] is reported as 42.355%. Also, in test [2], the “Average (percentage cell inhibition), Mastoparan PBMC” value was 4.899%.
Regarding `CC[C@H](C)[C@H](N)C(=O)N[C@@H](CC(N)=O)C(=O)N[C@@H](CC(C)C)C(=O)N[C@@H](CCCCN)C(=O)N[C@@H](C)C(=O)N[C@@H](CC(C)C)C(=O)N[C@@H](C)C(=O)N[C@@H](C)C(=O)N[C@@H](CCCNC(=N)N)C(=O)N[C@@H](C)C(=O)N[C@@H](CCCCN)C(=O)N[C@@H](CCCCN)C(=O)N[C@H](C(=O)N[C@@H](CC(C)C)C(N)=O)[C@@H](C)CC` [R9], the “Average (percentage cell inhibition), Dmastoparan MDA-MB231 12.5uM” value in test [1] is recorded as 12.7524%. The “Average (percentage cell inhibition), Mastoparan PBMC” value in test [2] amounted to 5.887%.
Regarding `CC[C@H](C)[C@H](N)C(=O)N[C@@H](CC(N)=O)C(=O)N[C@@H](CC(C)C)C(=O)N[C@@H](CCCCN)C(=O)N[C@@H](C)C(=O)N[C@@H](CC(C)C)C(=O)N[C@@H](C)C(=O)N[C@@H](C)C(=O)N[C@@H](CC(C)C)C(=O)N[C@@H](CCCNC(=N)N)C(=O)N[C@@H](CCCCN)C(=O)N[C@@H](CCCCN)C(=O)N[C@H](C(=O)N[C@@H](CC(C)C)C(N)=O)[C@@H](C)CC` [R10], in test [1], the “Average (percentage cell inhibition), Dmastoparan MDA-MB231 12.5uM” value stood at 11.5132%. In test [2], the “Average (percentage cell inhibition), Mastoparan PBMC” value worked out at 5.821%.
Consider `CC[C@H](C)[C@H](N)C(=O)N[C@@H](CC(N)=O)C(=O)N[C@@H](CC(C)C)C(=O)N[C@@H](CCCCN)C(=O)N[C@@H](C)C(=O)N[C@@H](CC(C)C)C(=O)N[C@@H](C)C(=O)N[C@@H](C)C(=O)N[C@@H](CC(C)C)C(=O)N[C@@H](C)C(=O)N[C@@H](CCCNC(=N)N)C(=O)N[C@@H](CCCCN)C(=O)N[C@H](C(=O)N[C@@H](CC(C)C)C(N)=O)[C@@H](C)CC` [R11], for which the “Average (percentage cell inhibition), Dmastoparan MDA-MB231 12.5uM” value in test [1] is reported as 37.1061%. Moreover, the “Average (percentage cell inhibition), Mastoparan PBMC” value in test [2] turned out to be 5.503%.
On the same counts, the results for `CC[C@H](C)[C@H](N)C(=O)N[C@@H](CC(N)=O)C(=O)N[C@@H](CC(C)C)C(=O)N[C@@H](CCCCN)C(=O)N[C@@H](C)C(=O)N[C@@H](CC(C)C)C(=O)N[C@@H](C)C(=O)N[C@@H](C)C(=O)N[C@@H](CC(C)C)C(=O)N[C@@H](C)C(=O)N[C@@H](CCCCN)C(=O)N[C@@H](CCCNC(=N)N)C(=O)N[C@H](C(=O)N[C@@H](CC(C)C)C(N)=O)[C@@H](C)CC` [R12] are 35.2659% and -4.156%.
For `CC[C@H](C)[C@H](N)C(=O)N[C@@H](CC(N)=O)C(=O)N[C@@H](CC(C)C)C(=O)N[C@@H](CCCCN)C(=O)N[C@@H](C)C(=O)N[C@@H](CC(C)C)C(=O)N[C@@H](C)C(=O)N[C@@H](C)C(=O)N[C@@H](CC(C)C)C(=O)N[C@@H](C)C(=O)N[C@@H](CCCCN)C(=O)N[C@@H](CCCCN)C(=O)N[C@@H](CCCNC(=N)N)C(=O)N[C@@H](CC(C)C)C(N)=O` [R13], the “Average (percentage cell inhibition), Dmastoparan MDA-MB231 12.5uM” value in test [1] worked out at 13.2975%. Further, the “Average (percentage cell inhibition), Mastoparan PBMC” value in test [2] was -5.395%.
Regarding `CC[C@H](C)[C@H](N)C(=O)N[C@@H](CC(N)=O)C(=O)N[C@@H](CC(C)C)C(=O)N[C@@H](CCCCN)C(=O)N[C@@H](C)C(=O)N[C@@H](CC(C)C)C(=O)N[C@@H](C)C(=O)N[C@@H](C)C(=O)N[C@@H](CC(C)C)C(=O)N[C@@H](C)C(=O)N[C@@H](CCCCN)C(=O)N[C@@H](CCCCN)C(=O)N[C@H](C(=O)N[C@@H](CCCNC(=N)N)C(N)=O)[C@@H](C)CC` [R14], the “Average (percentage cell inhibition), Dmastoparan MDA-MB231 12.5uM” value in test [1] turned out to be 9.085%. In addition, the “Average (percentage cell inhibition), Mastoparan PBMC” value in test [2] is listed as -1.726%.
For `CC[C@H](C)[C@H](NC(=O)[C@H](CCCCN)NC(=O)[C@H](CCCCN)NC(=O)[C@H](C)NC(=O)[C@H](CC(C)C)NC(=O)[C@H](C)NC(=O)[C@H](C)NC(=O)[C@H](CC(C)C)NC(=O)[C@H](C)NC(=O)[C@H](CCCCN)NC(=O)[C@H](CC(C)C)NC(=O)[C@H](CC(N)=O)NC(=O)[C@@H](N)CO)C(=O)N[C@@H](CC(C)C)C(N)=O` [S1], in test [1], the “Average (percentage cell inhibition), Dmastoparan MDA-MB231 12.5uM” value was found to be 31.5771%. The “Average (percentage cell inhibition), Mastoparan PBMC” value in test [2] is listed as -13.6432%.
